The values that follow come from US20250237010A1, “Selenium Containing Antimicrobial Compound as a Reacitve Dye and Cross-Linking Treatment for Textile Applications” (Texas Tech University System, priority 2021, published 2025).

The test system of data set [1] is Staphylococcus aureus. Briefly: Bacterial killing (CFUs/sample) on cotton fabric treated with the organo-selenium compound, Gram-positive. Type of data set: cell-based. An excerpt:
(§1) FIGS. 1A and 1B are graphs that compares the colony forming units (CFUs) per sample of bacteria on a fabric, showing total bacterial killing with the organoselenium compound, and no killing without the organoselenium compound. In this example, the organoselenium compound was applied to the fabric as a reactive dye.
(§2) The technology modifies triazines, a commonly used reactive dye within the textile chemistry for application to impart colors to fabrics, by incorporation of selenium to create a reactive dye with antimicrobial characteristics. Since the cotton manufacturing/processing industry currently relies on annealing of triazine to create colored fabrics, the presented technology can be incorporated into this sector with minimal changes in the production environment. The created compound, diseleniummonochlorotriazine, was evaluated in the laboratory by attaching the Se-based compound onto cotton fabrics with the following results: (1) Diseleniummonochlorotriazine killed 100% of Gram-positive bacteria (e.g., Staphylococcus aureus) that attempted to bind to the cotton, and (2) Diseleniummonochlorotriazine killed 90% of Gram-negative bacteria. (e.g., Pseudomonas aeruginosa) that attempted to bind to the cotton.
(§3) Example 1. […] The application technique for the organo-selenium compound can be used by, e.g., the textile industry, on an industrial scale to produce an anti-microbial fabric. […]

Data set [2] relates to Pseudomonas aeruginosa. Description: Bacterial killing (CFUs/sample) on cotton fabric treated with the organo-selenium compound, Gram-negative. Type of data set: cell-based. The conditions noted are these: compound attached onto cotton fabric; e.g. Pseudomonas aeruginosa.
Excerpt: as §1, §2, §3

Data set [3] concerns gram-negative and gram-positive bacteria. Description: Antimicrobial activity compared with industry requirements. Type of data set: cell-based. An excerpt:
In one example, the invention is the chemical compound diseleniummonochlorotriazine. Triazines are commonly used in the textile chemistry to synthesis the reactive dye and apply to fabrics as they form covalent bonds with cellulose. Incorporating selenium creates a reactive dye with antimicrobial properties. This same base structure can be used to make diselenocyanuric chloride, diselenocyanuric bromide, diselenocyanuric fluoride, or diselenocyanuric iodine. […] In one example, the antimicrobial agent has the structure: […]

Data set [4] in a line: Binding to cotton and resistance to washing of the resulting fabric. Type of data set: physicochemical. To be noted: attached to cotton yarns as reactive dye. An excerpt: Briefly, the inventors developed organo-selenium compounds that can be attached to cotton yarns and is suitable for applications as reactive dye.

Read-outs that look alike come from different tables or passages of the source.

As for `Clc1nc([SeH])nc([SeH])n1` [Diseleniummonochlorotriazine, diseleniummonochlorotriazine], in data set [1] (compound attached onto cotton fabric, e.g. Staphylococcus aureus), the “killed % of Gram-positive bacteria that attempted to bind to the cotton” value is on record as 100%. For the same compound, in data set [2], the “killed % of Gram-negative bacteria that attempted to bind to the cotton” value is 90%. The “antimicrobial activity level relative to industry expectations/requirements” value in data set [3] was “matches industry expectations”; in data set [3] (listed as diseleniummonochlorotriazine), “matches or exceed industrial requirements”.
As for `OCC(O)C[Se][Se]CC(O)CO` (stereo not shown), the “antimicrobial activity level relative to industry expectations/requirements” value in data set [3] is given as “matches or exceed industrial requirements”.
With diselenocyanuric chloride, the “killing of Staphylococcus aureus on the fabric (CFUs per sample), in words” value in data set [1] (treated cotton fabric, FIG. 1A, applied as reactive dye) is listed as “totally kill”. Besides, the “binding to the cotton and resistance to washing” value in data set [4] is “resistant to multiple washings”.
